Consider six compounds from patent US7723358B2, “Aroyl-O-piperidine derivatives for the treatment of diabetes-related problems” (Merck Patent GmbH, priority 2004, dated 2010).

Molecules are shown by their SMILES.

Assay [1] addresses T1, microsomal triglyceride transfer protein (MTP) (Mesocricetus auratus, UniProt P55158).
T1 construct: The supernatant comprising the soluble MTP is dialysed against Tris/HCl 150 mM; from tissue; host or cells: golden hamster liver microsomes, deoxycholate-solubilised supernatant, dialysed
T1 sequence (P55158 19-895): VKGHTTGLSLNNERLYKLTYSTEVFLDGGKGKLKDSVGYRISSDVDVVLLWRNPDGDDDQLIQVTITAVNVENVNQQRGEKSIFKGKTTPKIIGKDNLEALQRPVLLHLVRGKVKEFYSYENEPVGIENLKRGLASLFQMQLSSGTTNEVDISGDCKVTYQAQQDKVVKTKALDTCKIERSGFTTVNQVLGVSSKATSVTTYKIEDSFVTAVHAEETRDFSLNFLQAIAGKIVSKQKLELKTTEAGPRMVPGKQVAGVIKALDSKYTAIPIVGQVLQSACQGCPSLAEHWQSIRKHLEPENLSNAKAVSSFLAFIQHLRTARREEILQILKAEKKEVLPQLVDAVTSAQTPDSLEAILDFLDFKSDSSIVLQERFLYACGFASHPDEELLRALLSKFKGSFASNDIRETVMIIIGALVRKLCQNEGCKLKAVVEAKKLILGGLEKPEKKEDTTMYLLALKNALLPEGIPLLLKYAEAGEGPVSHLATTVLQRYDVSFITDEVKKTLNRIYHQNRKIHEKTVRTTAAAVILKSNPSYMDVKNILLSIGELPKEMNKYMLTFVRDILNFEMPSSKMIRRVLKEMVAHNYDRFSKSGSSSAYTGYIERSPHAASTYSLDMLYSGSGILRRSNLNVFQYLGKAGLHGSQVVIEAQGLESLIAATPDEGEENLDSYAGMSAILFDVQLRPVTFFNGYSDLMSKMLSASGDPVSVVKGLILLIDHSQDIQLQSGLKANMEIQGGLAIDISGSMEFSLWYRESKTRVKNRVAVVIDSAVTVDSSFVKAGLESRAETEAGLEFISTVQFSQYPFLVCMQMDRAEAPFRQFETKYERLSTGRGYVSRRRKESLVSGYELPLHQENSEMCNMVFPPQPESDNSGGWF
The assay can be described thus: Inhibition of MTP activity: transfer of [3H]-triolein from donor liposomes to biotinylated LDL, SPA. The class given is biochemical. The following applies: MTP from golden hamster liver; incubation 18-24 hours at 37° C.; read-out: IC50, concentration that allows a 50% inhibition of MTP. The gist of the method: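 Soluble MTP was extracted with deoxycholate from golden hamster liver microsomes. It was incubated with [3H]-triolein/phosphatidylcholine donor liposomes, biotinylated LDL acceptors and compound in DMSO in HEPES/NaCl/BSA buffer, pH 7.4, for 18-24 h at 37° C. Transfer was read with streptavidin SPA beads, and IC50 was taken as 50% inhibition of transfer.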

Assay [2] deals with apo B secretion in HepG2 cells. The assay can be described thus: Secretion of apo B in the HepG2 human cell line (sandwich-ELISA). The class given is cell-based. The settings on record: 24 hours incubation, culture supernatant, read-out: IC50, concentration that produces a 50% inhibition of apo B secretion in the HepG2 cells. The method, then: Analysis of the Secretion of apo B in the HepG2 Human Cell Line:
The activity of a compound according to the invention can be evaluated by measuring the inhibition of apo B secretion in HepG2 cells.
The HepG2 cells (ECACC—No. 85011430) are used as model in the study of the in vitro hepatic secretion of lipoproteins (Dixon J. and Ginsberg H., J., Lipid. Res., 1993, 34, 167-179).
The HepG2 cells are cultured in Dulbecco's modified Eagle's medium comprising 10% foetal calf serum (DMEM and FBS—Gibco) in 96-well plates under an atmosphere of 5% carbon dioxide for 24 hours (about 70% confluence).
The test compounds are dissolved at a concentration of 2 or 10 mM in dimethyl sulfoxide (DMSO). Serial dilutions (1:3.16) are made in DMSO and are added (1:200—Robot Multimek Beckman) to the growth medium (200 μL) and then finally incubated for 24 hours in the various wells containing the HepG2 cells.
The 24-hour culture supernatant diluted to 1:5 (phosphate-buffered saline:PBS comprising 1% bovine serum albumin) is tested according to a sandwich-ELISA method specific for human apo B.
The results are expressed in terms of IC50, i.e. the concentration that produces a 50% inhibition of apo B secretion in the HepG2 cells.

In the case of `Cc1cccc(C(=O)Nc2cccc(OC3CCN(C(=O)c4ccno4)CC3)c2)c1-c1ccc(OC(F)(F)F)cc1` [Example 100, N-[3-[[1-(5-isoxazolylcarbonyl)-4-piperi-dinyl]oxy]phenyl]-6-methyl-4′-(trifluoro-methoxy)[1,1′-biphenyl]-2-carboxamide], the IC50 in assay [1] is 139 nM; in assay [2], 54.1 nM.

For the compound `COc1ccc(CC(=O)N2CCC(Oc3cccc(NC(=O)c4cccc(C)c4-c4ccc(OC(F)(F)F)cc4)c3)CC2)cc1` [Example 101, N-[3-[[1-[2-(4-methoxyphenyl)acetyl]-4-piperidinyl]oxy]phenyl]-6-methyl-4′-(trifluoromethoxy)[1,1′-biphenyl]-2-carboxamide], the IC50 in assay [1] worked out at 160 nM; in assay [2], 92.6 nM.

Regarding `CC(=O)OCC(=O)N1CCC(Oc2cccc(NC(=O)c3cccc(C)c3-c3ccc(OC(F)(F)F)cc3)c2)CC1` [Example 102, N-[3-[[1-[2-(acetyloxy)acetyl]-4-piperidin-yl]oxy]phenyl]-6-methyl-4′-(trifluorometh-oxy)[1,1′-biphenyl]-2-carboxamide], the IC50 in assay [1] stood at 213 nM; in assay [2], 25.7 nM.

Consider `COc1ccc(C(=O)N2CCC(Oc3cccc(NC(=O)c4cccc(C)c4-c4ccc(OC(F)(F)F)cc4)c3)CC2)cc1OC` [Example 103], for which the results for the IC50 in assay [1] and in assay [2] were 130 nM and 68.4 nM, respectively.

As to `C/C=C/C(=O)N1CCC(Oc2cccc(NC(=O)c3cccc(C)c3-c3ccc(OC(F)(F)F)cc3)c2)CC1` [Example 128, 6-methyl-N-[3-[[1-[(2E)-1-oxo-2-butenyl]-4-piperidinyl]oxy]phenyl]-4′-(trifluorometh-oxy)[1,1′-biphenyl]-2-carboxamide], the values for the IC50 in assay [1] and in assay [2] were 100 nM and 22.2 nM, respectively.

Regarding `Cc1cccc(C(=O)Nc2cccc(OC3CCN(C(=O)C(C)C)CC3)c2)c1-c1ccc(OC(F)(F)F)cc1` [Example 142, 6-methyl-N-[3-[[1-(2-methyl-1-oxopropyl)-4-piperidinyl]oxy]phenyl]-4′-(trifluorometh-oxy)[1,1′-biphenyl]-2-carboxamide], the IC50 came out at 166 nM in assay [1] and 72.8 nM in assay [2].
